In patent publication EP0003359A1, “Specific optical isomers of 2-aminoethyl-1,4-benzodioxanes, process for their preparation and their pharmaceutical compositions” (CIBA-GEIGY AG, priority 1978, dated 1979):
Where a name gives a salt, the structure may show the parent alone.

Key:
[1] = system: genetisch hypertensive Ratten; experiment: Blood pressure lowering in hypertensive rats (indirect sphygmomanometry on the tail); format: in vivo; details: perorale Dosen von 5 mg/kg/Tag und darunter, preferably as hydrochloride
Source text: (§1) Die Verbindungen der Erfindung zeigen wertvolle pharmakologische Eigenschaften, in erster Linie hypotensive, antihypertensive und bradykardische Wirkungen, welche unter anderem durch ihre a- und ß-adrenergischblockierenden, vasodilatorischen und ihre hemmenden Effekte auf das zentrale sympatische Nervensystem zustandekommen. Diese Wirkungen können in Tierversuchen, vorzugsweise an Säugetieren, wie Ratten, Katzen oder Hunden, als Testobjekte nachgewiesen werden. Die Tiere können normotensiv oder hypertensiv, z.B. genetisch hypertensive Ratten sein. Die genannten Verbindungen können ihnen enteral oder parenteral, vorzugsweise oral oder intravenös, z.B. durch Gelatine-Kapseln oder in Form von Stärke enthaltenden Suspensionen bzw. wässerigen Lösungen, verabreicht werden. Die verwendete Dosis kann in einem Bereich von ungefähr zwischen 0,01 und 50 mg/kg/Tag, vorzugsweise ungefähr O,1 und 10 mg/kg/Tag, insbesondere ungefähr 1 und 5 mg/kg/Tag liegen. Die blutdrucksenkende Wirkung wird entweder direkt mit einem Katheter, der z.B. in die femurale Arterie des Hundes eingeführt ist, oder indirekt durch Sphygmomanometrie am Rattenschwanz, und einem Uebertragungsinstrument, welches den Blutdruck vor und nach der Verabreichung des Wirkstoffes in mm Hg angibt, registriert. […]

[2] = system: anesthätisierte, bilateral vagotomisierte Bastardhunde; experiment: Bradycardic effect in anaesthetised, bilaterally vagotomised dogs with heart rate raised by electrical stimulation; format: in vivo; details: Canis lupus familiaris, intravenous, read-out: intravenöse Dosis, nach der die bradykardischen Wirkungen registriert werden können
Source text: as §1

C[C@H](CCc1ccccc1)NC[C@H](O)[C@H]1COc2ccccc2O1 [ℓ-erythro-2R-[2-(4-Phenyl-2R-butylamino)-1S-hydroxyäthyl]-1,4-benzodioxan-hydrochlorid]
blutdrucksenkende Wirkung [1]: sehr wirksam | minimal effective dose [2]: 0.03 mg/kg
